{"source": "the supplement of paper PMC7801607"}
{"tested_on": "Plasmodium falciparum Dd2 asexual blood stage", "units": {"IC50": "µM"}}
{"molecule": "CN1c2ccc(Cl)cc2N(c2ccccc2)C(=O)c2cn(Cc3ccc(CN4CCOCC4)cc3)nc21", "IC50": "> 5"}
{"molecule": "COc1ccc(C[C@@H](C)[C@@H](C)Cc2ccc(OC)c(OC)c2)cc1OC", "IC50": "> 5"}
{"molecule": "CC(C)(C)c1cccc(-c2nc3cc(C(=N)N)ccc3[nH]2)c1O", "IC50": "> 5"}
{"molecule": "O=C(O)[C@H]1C2CCC(CC2)[C@@H]1Nc1nc(-c2c[nH]c3ncc(F)cc23)ncc1F", "IC50": "> 5"}
{"molecule": "CONC(=N)c1ccc(-c2ccc(-c3ccc(C(=N)NOC)cc3)o2)cc1", "IC50": "> 5"}
{"molecule": "Cc1[nH]c2ccccc2c1CC(=O)N[C@@H](Cc1ccccc1)C(=O)N(C)c1ccccc1", "IC50": "> 5"}
{"molecule": "CC[C@@H](CO)NCCN[C@@H](CC)CO", "IC50": "> 5"}
{"molecule": "C[C@H]1COc2c(N3CCN(C)CC3)c(F)cc3c(=O)c(C(=O)O)cn1c23", "IC50": "> 5"}
{"molecule": "O=S(=O)(Nc1ccc(O)cc1)c1cccc2cccnc12", "IC50": "> 5"}
{"molecule": "O=C(c1nc2c(C(F)(F)F)cc(C3CC3)cn2c1Cl)N1CCN([C@H]2CC[C@H](O)CC2)C(=O)C1", "IC50": "> 5"}
{"molecule": "O=C(NCc1ccc2c3c(cccc13)C(=O)N2)c1cccs1", "IC50": "> 5"}
{"molecule": "C[C@H](NC(=O)C(=O)Nc1ccccc1C(C)(C)C)C(=O)N[C@@H](CC(=O)O)C(=O)COc1c(F)c(F)cc(F)c1F", "IC50": "> 5"}
{"molecule": "C[C@H]1[C@@H](c2cccc(C(F)(F)F)c2)OC(=O)N1C(=O)NCc1cncc2ccccc12", "IC50": "> 5"}
{"molecule": "CCCCc1ccc(-c2nc(C)c(C(=O)OC)s2)cc1", "IC50": "> 5"}
{"molecule": "CC(N)C(=O)NC(CCCCN)C(=O)NC(CCCNC(=N)N)C(=O)NC(Cc1c[nH]cn1)C(=O)NC(Cc1c[nH]cn1)C(=O)NCC(=O)NC(Cc1ccc(O)cc1)C(=O)NC(CCCCN)C(=O)NC(CCCNC(=N)N)C(=O)NC(CCCCN)C(=O)NC(Cc1ccccc1)C(=O)NC(Cc1c[nH]cn1)C(N)=O", "note": "(configuration not stated)", "IC50": "> 5"}
{"molecule": "CC(C)(C)c1ccc(OCCn2nc(C(=O)O)c3ccccc3c2=O)cc1", "IC50": "> 5"}
{"molecule": "CC#C[C@]1(O)CC[C@H]2[C@@H]3CCC4=CC(=O)CCC4=C3[C@@H](c3ccc(N(C)C)cc3)C[C@@]21C", "IC50": "> 5"}
{"molecule": "Cc1ccc(N2CCC(CCOc3ccc(S(C)(=O)=O)cc3)CC2)nn1", "IC50": "> 5"}
{"molecule": "CC(N)C12CC3CC(CC(C3)C1)C2", "note": "(configuration not stated)", "IC50": "> 5"}
{"molecule": "NC(=O)c1nccn([C@@H]2O[C@H](CO)[C@@H](O)[C@H]2O)c1=O", "IC50": "> 5"}
{"molecule": "CC1(C)Cc2c(C#N)c(SCCc3ccccc3)nc(N3CCOCC3)c2CO1", "IC50": "> 5"}
{"molecule": "OB1OCc2c1ccc(Cl)c2F", "IC50": "> 5"}
{"molecule": "O=C(c1cc(O)nc2ccccc12)N1CCN(c2ccccc2)CC1", "IC50": "> 5"}
{"molecule": "OB1OCc2cc(Cl)ccc21", "IC50": "> 5"}
{"molecule": "Cc1ncc([N+](=O)[O-])n1CC(O)CN1CCOCC1", "note": "(configuration not stated)", "IC50": "> 5"}
{"molecule": "O=C(NNC(=S)Nc1ccc(Cl)cc1)c1ccncc1", "IC50": "> 5"}
{"molecule": "CCCCc1ccc(-c2cc(C(=O)O)cc(-c3ccc(Cl)cc3)n2)cc1", "IC50": "> 5"}
{"molecule": "COc1ccc(SCC(=O)N2c3ccccc3Sc3ccccc32)cc1", "IC50": "> 5"}
{"molecule": "CC[C@@H]1C(=O)OC[C@@H]1Cc1cncn1C", "IC50": "> 5"}
{"molecule": "CC[N+]1(C/C2=C/CCCCCC2)CCC(NC(=O)C2c3cc(Cl)ccc3Oc3ccc(Cl)cc32)CC1", "note": "(configuration not stated)", "IC50": "> 5"}
{"molecule": "Oc1ccc(NCc2ccccc2OCc2ccccc2)cc1", "IC50": "> 5"}
{"molecule": "Nc1nc(O)c2ncn(COCCO)c2n1", "IC50": "> 5"}
{"molecule": "CC1(C)CC(NC(=O)C(=O)Nc2ccc(Cl)cc2)CC(C)(C)N1", "IC50": "> 5"}
{"molecule": "CC(=O)NC[C@H]1CN(c2ccc(N3CCSCC3)c(F)c2)C(=O)O1", "IC50": "> 5"}
{"molecule": "N[C@H](CCC(=O)N[C@@H](Cc1c[nH]c2ccccc12)C(=O)O)C(=O)O", "IC50": "> 5"}
{"molecule": "Cc1cc(C)n2nc(C(=O)NS(=O)(=O)c3c(C)cccc3OC(F)(F)F)nc2n1", "IC50": "> 5"}
{"molecule": "NC1(C(=O)O)CCP(=O)(O)CC1", "note": "(configuration not stated)", "IC50": "> 5"}
{"molecule": "C=CCc1cc(Cc2cnc(N)nc2N)cc(OC)c1O", "IC50": "> 5"}
{"molecule": "CC(C)Nc1ncnc2c1cnn2-c1ccc(Cl)cc1", "IC50": "> 5"}
{"molecule": "O=C(NCc1cccc2ccccc12)c1cccs1", "IC50": "> 5"}
{"molecule": "CC(C)(C)c1ccc(C(Cn2cccc(C(F)(F)F)c2=O)NC2Cc3ccccc3C2)cc1", "note": "(configuration not stated)", "IC50": 4.6}
{"molecule": "COc1c(NC(=O)[C@H]2CC[C@@H](COc3ccc([N+](=O)[O-])cc3)CC2)c(F)cc2c(=O)c(C(=O)O)cn(C3CC3)c12", "IC50": "> 5"}
{"molecule": "NCCCc1ccccc1C(=O)Nc1ncc([N+](=O)O)s1", "IC50": "> 5"}
{"molecule": "CCCCCCC1c2ccc(O)cc2Oc2cc(O)ccc21", "IC50": "> 5"}
{"molecule": "O=[N+]([O-])/C(Br)=C/c1ccc(Br)o1", "IC50": "> 5"}
{"molecule": "CN(O)C(=O)c1cc2c(CN3CCC[C@H]3C(N)=O)cn(Cc3ccc(F)cc3)c2cn1", "IC50": "> 5"}
{"molecule": "COc1cc(Cc2cnc(N)nc2N)cc(OC)c1OC", "IC50": "> 5"}
{"molecule": "O=C(O)/C=C/C=C/c1cccc(Oc2cc(Cl)cc(Cl)c2)c1", "IC50": "> 5"}
{"molecule": "CC(C)(C)c1cc(CCC(=O)N2CCC2)cc(C(C)(C)C)c1O", "IC50": "> 5"}
{"molecule": "O=C(CP(=O)(O)O)NCCc1cccc(Oc2ccccc2)c1", "IC50": "> 5"}
{"molecule": "NC(=O)c1ccccc1NC(=O)c1ccc(C(=O)Nc2ccccc2C(N)=O)cc1", "IC50": "> 5"}
{"molecule": "COc1ccc(-n2cnc3cc(NCc4ccco4)ccc32)cc1", "IC50": "> 5"}
